Data: patent US20060270708A1, “Novel process for preparation of isotonic aqueous injection of ropivacaine” (Navinta LLC, priority 2005, published 2006)

Tests used:
[1] = Content of ropivacaine base dissolved in the filtered solution, by HPLC against a control solution; assay type: physicochemical; details: equimolar or less concentrated hydrochloric acid, even at about 60° C.
Method: Each resulting solution was warmed to about 50° C. and then cooled to room temperature with stirring for about 30 min., after which was added a suitable quantity of sodium chloride, and the total volume of each was made up to 25 mL. Osmolality of the filtered solution was determined using conventional freezing point osmometer. The pH of these solutions were in the range 3.2 to 3.5. The content of ropivacaine base dissolved in the solution was determined by HPLC against a control solution prepared by dissolving the same base in excess of hydrochloric acid.
Each resulting solution was warmed to about 50° C. with stirring for about 30 min., then cooled to room temperature, after which was added a suitable quantity of sodium chloride. The pH was then adjusted to 5.0 using sodium hydroxide solution, and then the volume was made up to 25 mL. The osmolality of the filtered solution was determined using conventional freezing point osmometer. The content of ropivacaine base dissolved in the solution was determined by HPLC against a control solution prepared by dissolving the same base in excess of hydrochloric acid.

[2] = optically pure form compared to the racemic mixture of bupivacaine; cited from earlier work
[3] = Hygroscopicity and stability of ropivacaine base and its salts; assay type: physicochemical
[4] = racemate compared with either D or L isomer alone, U.S. Pat. No. 4,695,576; cited from earlier work
[5] = reported in U.S. Pat. No. 4,870,086; cited from earlier work

## CCCN1CCCC[C@H]1C(=O)Nc1c(C)cccc1C [ropivacaine base, (L) N-n-propylpipecolic acid-2,6-xylidide]
[1]
  dissolution in aqueous media: did not yield a completely homogeneous solution
[2]
  cardio-toxic potential: reduced cardio-toxic potential
[3]
  hygroscopicity: not hygroscopic
  stability compared with its hydrochloride or hydrochloride monohydrate salts: much more stable

## CCCCN1CCCCC1C(=O)Nc1c(C)cccc1C (racemic) [bupivacaine, racemic N-n-butylpipecolic acid-2,6-xylidide]
[4]
  analgesic effects: better analgesic effects

## CCCN1CCCC[C@H]1C(=O)Nc1c(C)cccc1C.Cl [(L) N-n-propylpipecolic acid-2,6-xylidide hydrochloride]
[5]
  hygroscopicity / stability: hygroscopic and thus not stable
